Results on 14 compounds are retold here after patent US11096939B2, “KRAS G12C inhibitors and methods of using the same” (Amgen Inc., priority 2018, dated 2021).

Structures are written as SMILES. Some results are limits rather than exact numbers.

GDP-bound KRAS protein (aa 1-169), containing both G12C and C118A amino acid substitutions, sequence (P01116 1-169 isoform P01116-2 G12C/C118A): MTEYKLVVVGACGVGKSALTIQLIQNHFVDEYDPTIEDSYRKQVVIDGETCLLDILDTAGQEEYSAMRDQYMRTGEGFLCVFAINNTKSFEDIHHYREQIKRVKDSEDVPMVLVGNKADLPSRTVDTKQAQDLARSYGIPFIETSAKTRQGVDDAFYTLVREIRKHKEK

The target in this assay is GDP-bound KRAS protein (aa 1-169), containing both G12C and C118A amino acid substitutions (Homo sapiens, UniProt P01116, C118A/G12C). The experiment in a line: Coupled nucleotide exchange assay (SOS-mediated, AlphaScreen). It is filed as biochemical. The following applies: compound pre-incubation either 5 min or 2 hours (not stated per value); SOS and GTP added, cRAF AlphaScreen readout. Here is the method: Coupled Nucleotide Exchange Assay:
Following compound pre-incubation, purified SOS protein (aa 564-1049) and GTP (Roche 10106399001) were added to the assay wells and incubated for an additional 30 min (for 5 min compound pre-incubation) or 1 hour (for 2 hour compound pre-incubation). To determine the extent of inhibition of SOS-mediated nucleotide exchange, purified GST-tagged cRAF (aa 1-149), nickel chelate AlphaLISA acceptor beads (PerkinElmer AL108R), and AlphaScreen glutathione donor beads (PerkinElmer 6765302) were added to the assay wells and incubated for 10 minutes. The assay plates were then read on a PerkinElmer EnVision Multilabel Reader, using AlphaScreen® technology, and data were analyzed using a 4-parameter logistic model to calculate IC50 values.
On to `C=CC(=O)N1C[C@H](C)N(C2=NC(=O)C(C3CC3)(C3CC3)c3nc(-c4ccccc4F)c(Cl)cc32)C[C@H]1C` [Example 2-1, 5-((2S,5R)-4-Acryloyl-2,5-dimethylpiperazin-1-yl)-3-chloro-8,8-dicyclopropyl-2-(2-fluorophenyl)-1,6-naphthyridin-7(8H)-one], for which the “Coupled Exchange IC50” value is 18.6 µM.

Regarding `C=CC(=O)N1CCN(C2=NC(=O)C(C)(CC(C)C)c3nc(-c4ccccc4F)c(Cl)cc32)[C@@H](C)C1` (single isomer, unassigned) [Example 3-1-1], the “Coupled Exchange IC50” value is 94.7 µM.

For `C=CC(=O)N1C[C@H](C)N(C2=NC(=O)C(C)(CC)c3nc(-c4ccccc4F)c(Cl)cc32)C[C@H]1C` (single isomer, unassigned) [Example 1-4-2], the “Coupled Exchange IC50” value is 139 µM.

`C=CC(=O)N1C[C@H](C)N(C2=NC(=O)C(C)(c3ccccc3)c3nc(-c4ccccc4F)c(Cl)cc32)C[C@H]1C` (stereo partly drawn) [Example 1-5, 5-((2S,5R)-4-Acryloyl-2,5-dimethylpiperazin-1-yl)-3-chloro-2-(2-fluorophenyl)-8-methyl-8-phenyl-1,6-naphthyridin-7(8H)-one]: the “Coupled Exchange IC50” value turned out to be 25.9 µM.

Consider `C=CC(=O)N1C[C@H](C)N(C2=NC(=O)C(C)(C3CCCC3)c3nc(-c4ccccc4F)c(Cl)cc32)C[C@H]1C` (single isomer, unassigned) [Example 1-1-1], for which the “Coupled Exchange IC50” value was 250 µM.

For `C=CC(=O)N1C[C@H](C)N(C2=NC(=O)C(C)(CC(C)C)c3nc(-c4ccccc4F)c(Cl)cc32)C[C@H]1C` (single isomer, unassigned) [Example 1-8-1], the “Coupled Exchange IC50” value turned out to be 53.8 µM.

Take `C=CC(=O)N1C[C@H](C)N(C2=NC(=O)C(C)(C3CCC3)c3nc(-c4ccccc4F)c(Cl)cc32)C[C@H]1C` (single isomer, unassigned) [Example 1-3-1]: the “Coupled Exchange IC50” value stood at 201 µM.

Consider `C=CC(=O)N1C[C@H](C)N(C2=NC(=O)C(C)(c3ccccc3)c3nc(-c4ccccc4F)c(Cl)cc32)C[C@H]1C` (single isomer, unassigned) [Example 1-5-2], for which the “Coupled Exchange IC50” value came to 14.9 µM.

`C=CC(=O)N1C[C@H](C)N(C2=NC(=O)C(C)(C3CCCC3)c3nc(-c4ccccc4F)c(Cl)cc32)C[C@H]1C` (mixture of isomers) [Example 1-1, 5-((2S,5R)-4-Acryloyl-2,5-dimethylpiperazin-1-yl)-3-chloro-8-cyclopentyl-2-(2-fluorophenyl)-8-methyl-1,6-naphthyridin-7(8H)-one]: the “Coupled Exchange IC50” value turned out to be 2.68 µM.

For the compound `C=CC(=O)N1C[C@H](C)N(C2=NC(=O)C(C)(c3ccccc3)c3nc(-c4ccccc4F)c(Cl)cc32)C[C@H]1C` (single isomer, unassigned) [Example 1-5-1], the “Coupled Exchange IC50” value was found to be 186 µM.

As for `C=CC(=O)N1CCN(C2=NC(=O)C(C)(CC(C)C)c3nc(-c4ccccc4F)c(Cl)cc32)[C@@H](C)C1` (stereo partly drawn) [Example 3-1, 5-((S)-4-Acryloyl-2-methylpiperazin-1-yl)-3-chloro-2-(2-fluorophenyl)-8-isobutyl-8-methyl-1,6-naphthyridin-7(8H)-one], the “Coupled Exchange IC50” value came to 14.3 µM.

Regarding `C=CC(=O)N1C[C@H](C)N(C2=NC(=O)C(C)(CC)c3nc(-c4ccccc4F)c(Cl)cc32)C[C@H]1C` (stereo partly drawn) [Example 1-4, 5-((2S,5R)-4-Acryloyl-2,5-dimethylpiperazin-1-yl)-3-chloro-8-ethyl-2-(2-fluorophenyl)-8-methyl-1,6-naphthyridin-7(8H)-one], the “Coupled Exchange IC50” value was found to be 19.3 µM.

For the compound `C=CC(=O)N1C[C@H](C)N(C2=NC(=O)C(C)(C3CC3)c3nc(-c4ccccc4F)c(Cl)cc32)C[C@H]1C` (single isomer, unassigned) [Example 1-2-2], the “Coupled Exchange IC50” value was more than 250 µM.

As to `C=CC(=O)N1C[C@H](C)N(C2=NC(=O)C(C)(C3CCCC3)c3nc(-c4ccccc4F)c(Cl)cc32)C[C@H]1C` (single isomer, unassigned) [Example 1-1-2], the “Coupled Exchange IC50” value is 1.43 µM.
